Patent US20230089267A1, “Compositions and Methods For Reducing Immune Intolerance and Treating Autoimmune Disorders” (Lapix Therapeutics, Inc., priority 2021, published 2023)
Counter-ions that a name gives are not always drawn. Blank lines part the entries; values can stand above or below the compound they belong to.

Experiments:
[1] = tested on: FoxP3+/CD4+ T-cells in splenocytes from naïve C57BL/6 mice; assay: In vitro dose-response, percent FoxP3+/CD4+ T-cells in murine splenocytes; assay type: cell-based; conditions: for EC50 / EC90: Mus musculus, T-cell, percent FoxP3+/CD4+ T-cells, 72 hours, 4-parameter log-logistic model fit; for mean FoxP3+/CD4+ T-cells, upper plateau, mean (SEM): high dose; for mean FoxP3+/CD4+ T-cells, upper plateau, mean (SEM) / mean FoxP3+/CD4+ T-cells, lower plateau, mean (SEM): from model fitting; for mean FoxP3+/CD4+ T-cells, lower plateau, mean (SEM): low dose
Description: All animal studies were conducted under IACUC number B2020-91 and in compliance with Tufts University/Tufts Medical Center & Human Nutrition Research Center on Aging. Animals were housed four in a cage and had access to food and water ad libitum. Anti-FoxP3 and anti-CD4 for flow cytometry were obtained from eBioscience. Compounds 1-3 were formulated with 10% DMPC in PBS. PS liposomes were synthesized at a 30:70 PS:lipid molar ratio.
Splenocytes from naïve C57BL/6 mice were stained with CFSE, seeded at 2×10^5 cells/well, and dosed with each compound from 1e^−4 μM to 3.0e^−9 μM using a log 2 dilution scheme. Cells were incubated for 72 hours before phenotyping for FoxP3+/CD4+ T-cells. Flow cytometer analysis was performed to assess changes in percent FoxP3+/CD4+ T-cells as a function of compound and dose. Concentration versus response was fitted to a 4-parameter, log-logistic model using the “dre” package in “R”. Both EC50 and EC90 were obtained by model fitting.
Cells were observed via a microscope at the end of the incubation period. All cells looked healthy and suitable for flow cytometry analysis.
Table 2 summarizes EC50 and EC90 values obtained from the model fitting.

[2] = tested on: MOG35-55-induced murine EAE model; assay: MOG35-55-induced murine EAE model, Compound 2 versus Compound 8 (Example 12); assay type: in vivo, mice; conditions: 3 μg/mouse/day SC, after ten days of treatment
Description: Mice were immunized with 100 μg MOG35-55 emulsified with CFA and pertussis toxin, as described in Example 4. At disease onset (clinical score 1), mice were randomized into two treatment groups, and received 3 μg/mouse/day SC of either Compound 2 or Compound 8.

[3] = tested on: MOG35-55-induced murine EAE model; assay: Escalation treatment paradigm in MOG35-55-induced murine EAE model (Example 8); assay type: in vivo, mice
Description: Compound 2 (0.03 mg/ml) was formulated with hydroxypropyl beta cyclodextrin (HPCD) 1:80 (Compound 2:HPCD) and stored at 4° C. until use. Natalizumab, an anti-α4β1 integrin antibody is a monoclonal antibody that is approved by U.S. Food and Drug Administration (FDA) for the treatment of relapsing forms of MS. […] Natalizumab was diluted in PBS to a final concentration of 15 mg/ml before dosing. DMF is a disease-modifying therapy (DMT) recommended for the treatment of active relapsing multiple sclerosis. DMF (1 g) was dissolved in 50 ml of 4% solution of METHOCEL© to give a 20 mg/ml solution of DMF. The solution was stored at 4° C. until use.
Experimental autoimmune (allergic) encephalomyelitis (EAE) is considered to be the best non-clinical model of multiple sclerosis (MS). Over 6,000 papers have been published in scientific journals on this model. EAE is characterized by immune responses against CNS tissue and can be induced in animals by immunizing them against proteins of the CNS. In the active EAE model, mice are immunized with MOG35-55 peptide emulsified in Complete Freund's Adjuvant (CFA) by subcutaneous injection at the tail base (100 μg of […] per mouse) under anesthesia. On the day of injection (Day 0) and two days later (Day 2), mice receive an intraperitoneal injection of pertussis toxin (PT) in PBS at 200 ng/mouse/dose (0.1 mL). Symptoms typically develop in mice 9-14 days after immunization (Day 0). Daily observation and scoring of mice start on Day 7 and continue until the end of the study. Table 5 (see Example 4 above) details the expected clinical symptoms and the scoring criteria used in this study.
This study was designed to evaluate the early sustained use of Compound 2 versus DMF in a treatment escalation paradigm (sustained use cohort), and Compound 2 versus natalizumab after DMF failure (escalation cohort). All animals in the escalation cohorts received 14 doses of DMF or Compound 2, or 3 doses of natalizumab, as per group assignment.
Probability of disease control: Disease control was defined as a clinical score of less than 2.5. Animals in the different treatment groups were monitored after the 3:1:1 randomization. A score of 2.5 was recorded as an event and analyzed by survival analysis in GraphPad Prism 9. Animals not reaching a clinical score of 2.5 by day 14, the end of the treatment period, were assigned a score of zero for the survival analysis.
Efficacy of Compound 2 versus DMF in early sustained use: Animals in the DMF group that reached a score of 2.5 were randomized 1:1:1, as per FIG. 5A. Animals randomized to continue DMF treatment were given the remainder of the 14 DMF doses. Animals from the first randomization that were treated with Compound 2 after disease onset continued treatment for a total of 14 doses. After the 14th dose, treatment was stopped and clinical score and overall survival were monitored.
Efficacy of Compound 2 versus natalizumab in a treatment escalation cohort: Animals in the DMF group that reached a score of 2.5 were randomized 1:1:1, as per FIG. 5A. Animals randomized to natalizumab were dosed 100 μg/mouse IV every 3 days for 3 total doses starting the same day a score of 2.5 was recorded. Animals randomized to Compound 2 were dosed with 3 μg/mouse SC QD for 14 total doses starting on the same day a score of 2.5 was recorded.
Overall survival: Death due to the disease was monitored in the early sustained use cohort as well as the escalation cohort. Death by disease (clinical score of 5) was recorded as an event “1,” death due to ulceration or for ex vivo analysis was recorded as “0.” Animals surviving until the end of the study were recorded “0” on day 27. Survival analysis was done in GraphPad Prism 9.

[4] = tested on: MOG35-55-induced murine EAE model; assay: Induction/maintenance treatment paradigm in MOG35-55-induced murine EAE model (Example 9); assay type: in vivo, mice
Description: Compound 2, natalizumab and DMF were prepared as described in Example 8. Table 5 (see Example 4) details the expected clinical symptoms and scoring criteria used in this study.
This study was designed to evaluate the therapeutic effects of Compound 2 versus natalizumab in a treatment induction/maintenance paradigm (induction cohort), and Compound 2 versus DMF after natalizumab (maintenance cohort). In the induction cohorts, animals were randomized 2:1:1 natalizumab:Compound 2:control when they reached a score of 2.5, as per FIG. 6A. Animals in the natalizumab cohort were given 100 μg natalizumab/mouse every 3 days for 3 doses before being randomized to the maintenance cohort. Animals randomized into the maintenance cohort after natalizumab received maintenance doses of DMF or Compound 2 (1:1 randomization), as per their group assignment for 14 days. Animals in the Compound 2 induction cohort were dosed with 30 μg Compound 2/mouse SC QD for a maximum of 7 days, or 3 consecutive days of disease score <2.5, at which time they were placed on a maintenance dose of 3 μg/mouse SC QD for 14 days. All animals in all groups were monitored for 14 days after the last dose for disease score and survival.
Disease control (induction therapy): Disease control was defined as maintaining a clinical score of 2.5 or less after randomization. Animals in the different treatment groups were monitored after the 2:1:1 randomization. Clinical scores were recorded daily for all animals and plotted over time. A score of >2.5 was recorded as an event and analyzed by survival analysis in GraphPad Prism 9. Animals not reaching a clinical score of 2.5 by the end of the induction period (day 7) were assigned a score of zero for the survival analysis.
Survival (induction therapy): Death due to disease (clinical score 5) during the treatment induction period was recorded as an event “1”, animals surviving until the end of the induction period, day 7 after randomization, were censored on day 7 for the purposes of survival analysis.
Disease control (maintenance therapy): At the end of the induction period with natalizumab, animals were randomized 1:1 to the DMF maintenance group or Compound 2 maintenance group as per FIG. 6A. Animals were dosed for 14 days, and clinical scores were monitored daily.
Survival (maintenance therapy): Death by disease (clinical score of 5) was recorded as an event “1”, death due to ulceration or ex vivo analysis was recorded as “0”. Animals surviving until the end of the study were recorded as “0” on the last day of the study. Survival analysis was done in GraphPad Prism 9.

passive MG model = assay: Passive myasthenia gravis model, adoptive transfer to RAG2−/− mice; assay type: in vivo; conditions: by day 10, SC daily for ten days
Description: In this passive MG model in B6 mice, donor mice (n=20, aged 6-8 weeks) were immunized with complete Freund's adjuvant (CFA) and nicotinic acetylcholine receptor (AChR) emulsion weekly for four weeks. Seven days after the last immunization, splenocytes were collected, and 10^6 cells/mouse were transferred to RAG2^−/− mice. The recipient mice (n=10/group) were treated one day after adoptive transfer with prednisone (1 μg/mouse) SC daily for ten days after disease onset or Compound 2 3 μg SC daily for ten days after disease onset, or were left untreated. Minimal manifestation of disease was defined as a return to a clinical score of 1 after an exacerbation (score 2 or higher). Time to return to minimal score was logged, and the likelihood of return was plotted for untreated animals, and standard of care (SOC; prednisone)- and Compound 2-treated animals.

[5] = maintenance after natalizumab induction
[6] = escalation cohort after DMF failure (score 2.5), by day 14 after switching

- EC50 [1]: 2.06 nM
- EC90 [1]: 688 nM
Compound: N[C@@H](CNC(=O)Cc1ccc(OCc2ccccc2)cc1)C(=O)O [Compound 1, (S)-2-amino-3-(2-(4-(benzyloxy)phenyl)acetamido)propanoic acid]
- mean FoxP3+/CD4+ T-cells, upper plateau, mean (SEM) [1]: 5.18%
- mean FoxP3+/CD4+ T-cells, lower plateau, mean (SEM) [1]: 1.47%

- EC50 [1]: 3.76 nM
- EC90 [1]: 20.4 nM
Compound: N[C@@H](CNC(=O)Cc1ccc(OC(c2ccccc2)c2ccccc2)cc1)C(=O)O [Compound 3, (S)-2-amino-3-(2-(4-(benzhydryloxy)phenyl)acetamido)propanoic acid]
- potency relative to PS, as measured by EC50 and EC90 ([1]; EC50 and EC90, respectively): two and one orders of magnitude higher (more potent) than PS
- mean FoxP3+/CD4+ T-cells, upper plateau, mean (SEM) [1]: 3.48%
- mean FoxP3+/CD4+ T-cells, lower plateau, mean (SEM) [1]: 1.32%

Compound: N[C@@H](CNC(=O)Cc1ccc(OCc2cccc3ccccc23)cn1)C(=O)O [Compound 8, (S)-2-Amino-3-(2-(5-(naphthalen-1-ylmethoxy)pyridin-2-yl)acetamido)propanoic acid]
- mean clinical score, comparison of the two groups [2]: no statistical difference

Compound: COC(=O)/C=C/C(=O)OC [DMF, dimethyl fumarate, reference compound]
- disease course in early sustained use cohort ([3]; 14 doses, followed to end of study): progressed at the same rate as untreated control animals, with all animals reaching a clinical score of 5 by end of the study
- overall survival, early sustained use cohort ([3]; to day 27): all animals in the DMF-treated group died by day 26
- animals that progressed to a score of 2.5 ([3]; treatment from disease onset (score 1), within 7 days of disease onset): All animals (n=30)
- mean clinical score of animals randomized to maintenance therapy after natalizumab induction ([4]; at start of maintenance): 2.5 (SD=0.4)
- animals that progressed to clinical score 5 (death by disease) [4, 5]: 3 out of 4
- last measured score, day 7 after initiation of maintenance [4, 5]: 4.37 (SD=1.2)
- mortality rate in maintenance cohort ([4]; maintenance after natalizumab induction, n=4 in each group): 75%

- EC50 [1]: 0.133 nM
- EC90 [1]: 0.314 nM
Compound: CCCCCC(=O)O[C@@H](COC(C)=O)CO[PH](=O)OC[C@H](N)C(=O)O (stereo partly shown) [PS, phosphatidylserine, reference compound]

Compound: C[C@]12C=CC(=O)C=C1CC[C@@H]1[C@@H]2C(=O)C[C@@]2(C)[C@H]1CC[C@]2(O)C(=O)CO [prednisone, reference compound]
- animals returned to minimal manifestation of disease (score 1) (passive MG model): 46%

Compound: natalizumab: anti-α4β1 integrin monoclonal antibody approved by FDA for the treatment of relapsing forms of MS [reference compound]
- mean clinical score after switching from DMF [3, 6]: 3.6 (SD=1.6)
- median clinical score after switching from DMF [3, 6]: 3.75
- animals that survived until day 27, escalation cohort ([3]; switched from DMF): 6 out of 9
- mice showing clinical score improvement and switched to maintenance before end of induction period ([4]; induction period): 0/18
- animals that survived the treatment induction period ([4]; induction period, day 7 after randomization): 11/18
- mice that died before completing the induction therapy ([4]; induction therapy): 38.8%
- mean clinical score by day 7 of induction ([4]; randomized at score 2.5, Compound 2 30 μg SC): 3.61 (SD=1.17)
- animals that progressed to a clinical score >2.5 during induction ([4]; randomized at score 2.5, natalizumab 100 μg/mouse every 3 days, Compound 2 30 μg SC): 12
